# Assay results taken from patent US5686448A (priority 1995, dated 1997).
# Read-outs that look alike come from different tables or passages of the source.
# Experiments:
# HSV-1 (F strain) [1] = system: HSV-1 (F strain)
# HSV-2 = conditions: for Percent Reduction of lesions / # of lesions: TEAC ointment from 12-16 hours p.i.
# Procedure: Female guinea pigs (obtained from Charles River, Inc.) weighing approximately 200 g were used as a model for HSV-2 skin lesions. The animals were anesthetized with 0.15 ml of Ketamine-Rompum mixture. The animals were first shaved on their back with a hair clipper and then treated with a depilatory cream (Nair). The denuded area was washed well and then dried. A tuberculin tyne was washed with ethanol and air dried.
# Two methods were tried for infecting the animals with the virus. In one, a drop of HSV-2 suspension was placed on the skin and the skin was punctured with the tyne. In the second method, the tyne was dipped in the virus suspension before puncturing the skin.
# In the first experiment, each of 3 guinea pigs was infected on three areas of their backs. At 3 days post infection, treatment was begun on one side of each animal, leaving the other side untreated as a control.
# The animals were examined daily for vesicles (V), crust (C) and for erythema (R) alone.
# In the next experiment 6 guinea pigs were infected in the same manner as the initial 3 guinea pigs. Treatment was begun 12-16 hours post infection. […] Lesions showing an erythematous base with either a blister or a crust on top were considered to HSV specific. […] Both the control animals and treated animals were carefully read in the same manner.
# RK-13 cells = conditions: 25 mg/ml, 48 hours
# HSV-1 (F strain) [2] = system: HSV-1 (F strain); remark: listed apart in the source
# Vero cells = system: Vero cells
# Procedure: To determine the toxicity level of the drug, all three cell lines--RK-13, Vero cells, and WISH cells--were used. In the toxicity experiments, the effect of the drug on the uninfected cell for a range of periods of time was determined. Accordingly, cultures were incubated with and without the drug. The time of exposure was from one to seven hours. A comparison was then made between the drug tested cultures and the control cultures. After each period of incubation, the cells were washed and fresh media was added to the cells. The cell viability was then determined by dividing these cultures and having them grow into new cell cultures.
# At the end of the incubation period, the cultures were washed twice with sterile PBS (Dulbecco). Fresh medium was added to each of the cultures. The cultures were then incubated for an additional 24 hours.
# (§1) Healthy confluent monolayer cell cultures were overlaid with 1 ml of the drug and incubated for 48 hours at 37° C. and then stained. Cell cultures with maintenance media were used as controls.
# [3] = Description: Patient B is a person diagnosed as having both HSV type 1 (expressed as oral lesions) and HSV type 2 (expressed as penile lesions).
# Patient E is a person who weighed 93 kg when they reported for treatment.
# Patient K is a person who weighed 59 kg. when they reported for treatment. They were diagnosed as having HSV type 2. They described a history of lesions on the buttocks and genital region with attacks occurring monthly in cooler weather and weekly in warmer weather.
# [4] = system: Flow 1000 cells (foreskin cells); conditions: 25 mg/ml, 48 hours
# Procedure: as §1
# [5] = 5, 2.5, 1.25 mg/culture overnight
# [6] = 5, 2.5, 1.25 mg/culture, additional 24 hours in fresh medium
# [7] = Exp. 1D, added after adsorption, 25.0 mg/culture
# [8] = Exp. 1D, added after adsorption, 50.0 mg/culture
smiles,measurement,setting,value
"CC[N+](CC)(CC)CC.[Cl-] [TEAC, tetraethylammonium chloride]",average plaque number,"HSV-1 (F strain) [1]; 2.5 mg/ml (1 ml plus 4 ml media), Vero, control 488.5",75.5 plaque
same,size of the plaque vs control,"HSV-1 (F strain) [1]; 2.5 mg/ml, Vero",appreciably smaller
same,suppression of viral growth,HSV-1 (F strain) [1]; summary of first series,"not only by the reduced number of plaque, but also by their reduced size"
same,change in morphology of cells,WISH cells; [5],No change in the morphology of the cells
same,growth or general appearance vs untreated,WISH cells; [6],no apparent difference in the growth or general appearance
same,cell layer appearance,vaccinia,thin
same,plaque formation,vaccinia,did not have any plaque
same,Percent Reduction of lesions,HSV-2; day 3 P.I.,21%
same,# of lesions,"HSV-2; day 3 P.I., control 19",15
same,Percent Reduction of lesions,HSV-2; day 4 P.I.,27.5%
same,# of lesions,"HSV-2; day 4 P.I., control 40",29
same,Percent Reduction of lesions,HSV-2; day 5 P.I.,58.5%
same,# of lesions,"HSV-2; day 5 P.I., control 41",17
same,Percent Reduction of lesions,HSV-2; day 6 P.I.,58.3%
same,# of lesions,"HSV-2; day 6 P.I., control 36",15
same,lesion appearance,"HSV-2; first experiment, 4 times daily from 3 days p.i.",did not crust but appeared to be faded by 6 days post infection
same,dermatitis,"HSV-2; first experiment, day 4 after treatment, probably due to TEAC or its vehicle or both",a rash appeared
same,number and size of lesions,HSV-2; given 12-16 hours p.i.,"significant reduction in the number of lesions, but also in their size"
same,rupture and crusting of lesions,HSV-2; given 12-16 hours p.i.,neither ruptured nor crusted
same,vesicle formation,HSV-2; given 12-16 hours p.i.,less vesicles formed
same,vesicles,HSV-2; given 3 days p.i.,reduced in elevation and eventually resolved
same,number and appearance of lesions vs control,HSV-2; treatment from 12-16 hours p.i.,marked difference between the two groups
same,toxicity,RK-13 cells,toxicity
same,% plaque inhibition,"HSV-1 (F strain) [2]; Exp. 1C, added after inoculation, 0.62 mg/culture",30%
same,% plaque inhibition,"HSV-1 (F strain) [2]; Exp. 1C, added after inoculation, 1.25 mg/culture",39%
same,% plaque inhibition,"HSV-1 (F strain) [2]; Exp. 1C, added after inoculation, 2.50 mg/culture",46%
same,% plaque inhibition,"HSV-1 (F strain) [2]; Exp. 1C, added after inoculation, 5.00 mg/culture",45%
same,% plaque inhibition,"HSV-1 (F strain) [2]; Exp. 1C, added after inoculation, 10.00 mg/culture",56%
same,antiviral activity,"HSV-1 (F strain) [2]; Exp. 1C, all dilutions",Antiviral activity was seen in all dilutions tested
same,% plaque inhibition,"HSV-1 (F strain) [2]; Exp. 1D, added after adsorption, 6.2 mg/culture",20%
same,% plaque inhibition,"HSV-1 (F strain) [2]; Exp. 1D, added after adsorption, 12.5 mg/culture",62%
same,plaque formation,"HSV-1 (F strain) [2]; Exp. 1D, added after adsorption, 25 mg/culture",no plaque formed
same,% plaque inhibition,HSV-1 (F strain) [2]; [7],100%
same,"cell layer appearance (thin = cells attached, monolayer not confluent)",HSV-1 (F strain) [2]; [7],thin
same,plaque formation,"HSV-1 (F strain) [2]; Exp. 1D, added after adsorption, 50 mg/culture",no plaque formed
same,% plaque inhibition,HSV-1 (F strain) [2]; [8],100%
same,"cell layer appearance (thin = cells attached, monolayer not confluent)",HSV-1 (F strain) [2]; [8],thin
same,inhibition of in vitro replication,"HSV-1 (F strain) [2]; HSV-1, summary",inhibited the in vitro replication of HSV-1 and HSV-2
same,crusting,"HSV type 1; Patient L, 2.9 cc, normally 3 weeks","on the 7th day after the treatment, the crusting had all disappeared"
same,labialis lesion,"HSV type 1; Patient M, 1% TEAC ointment resumed, three days later",the lesion had not spread and had now crusted
same,clearing of lesions,"HSV type 1; Patient M, 1% TEAC ointment, five days later",cleared in a shorter time period than usual
same,toxicity,"Vero cells; 25 mg/ml, 48 hours",slight toxicity
same,change in morphology of cells,Vero cells; [5],No change in the morphology of the cells
same,growth or general appearance vs untreated,Vero cells; [6],no apparent difference in the growth or general appearance
same,side effects,"[3]; Patient A, first infusion 2.8 cc",some blurred vision and slight dizziness on rising to the seated position
same,side effects,"[3]; Patient A, second infusion 3.2 cc",some blurred vision
same,drug related effects,"[3]; Patient B, 3.7 cc (5 mg/kg)","blurred vision, dryness of the mouth, and unsteady gait"
same,time to cessation of drug related effects after infusion,"[3]; Patient B, 3.7 cc (5 mg/kg)",10 to 15 min
same,side effects,"[3]; Patient C, 3.85 cc (5 mg/kg)",slightly blurred vision
same,side effects,"[3]; Patient D, 2.8 cc (5 mg/kg)",dry mouth and transient blurred vision
same,side effects,"[3]; Patient E, 4.8 cc (5 mg/kg)",slightly blurred vision
same,reddening of lip,"[3]; Patient G, 4.3 cc",some reddening of the lip
same,side effects,"[3]; Patient J, 3.6 cc (5.5 mg/kg)",some blurred vision
same,side effects,"[3]; Patient K, first infusion 3.1 cc",some blurred vision
same,side effects,"[3]; Patient K, second infusion 3.4 cc",blurred vision
same,duration of feeling badly following treatment,"[3]; Patient L, 2.9 cc (5.5 mg/kg)",24 to 36 h
same,side effects,"[3]; Patient L, 2.9 cc (5.5 mg/kg)",some blurred vision
same,toxicity,[4],toxicity
